In publication PMC6440977 (Nature Communications, 2019):

Target: T. brucei PKAR-PKAC1 holoenzyme (Trypanosoma brucei, UniProt Q9GU80)
Test: biochemical
Format: biochemical

Structure (SMILES): N#Cc1cn([C@@H]2O[C@H](CO)[C@@H](O)[C@H]2O)c2ncnc(O)c12 [7-CN-7-C-Ino, 7-Cyano-7-deazainosine]
- EC50: 6.5 ± 4.6 nM
